# Key:
# [1] = test system: A. fumigatus-infected C57BL/6 and Cftr−/− mice; assay: Lung inflammatory pathology and cell recruitment in Aspergillus-infected mice; assay type: in vivo; conditions: 200 μg/kg/i.p. daily for 6 days, 7 days post-infection
# Description: Mice. Wild-type (WT) inbred C57BL6 mice, 8 to 12 weeks old, were purchased from Charles River Breeding Laboratories (Calco, Italy). Genetically engineered homozygote Cftr^−/− mice (33) were bred at the Cystic Fibrosis core animal facility at San Raffaele Hospital, Milan, Italy. Experiments were performed following protocols approved by the institutional animal committee and in accordance with European Economic Community Council Directive as well as institutional animal care and use guidelines.
# Infection and treatments. Mice were anesthetized by i.p. injection of 2.5% avertin (Sigma Chemical Co, St. Louis, MO) before intranasal instillation of 2×10^7 A. fumigatus (Af293) resting conidia/20 μl saline. For histology, paraffin-embedded tissue were stained with Periodic acid-Schiff (PAS), and BAL fluid collection was done as described (21, 22). […]
# Aspergillus-infected mice were treated with 200 μg/kg/i.p. daily of Tα1 for 6 consecutive days beginning the day of the infection. Mice were monitored for lung inflammatory pathology and cell recruitment at 7 days post-infection. […] Differential cell count of mononuclear (MNC), polymorphonuclear (PMN) cells and eosinophils (EOS) was determined upon May Grunwald Giemsa staining. […]
# ΔF508 CFTR = ΔF508 CFTR (Homo sapiens, UniProt P13569, DEL508-508); assay: CFTR immunoblot (mature C / immature B band) in CFBE41o− cells stably expressing ΔF508 CFTR; assay type: cell-based
# Sequence of ΔF508 CFTR (P13569 with tags, fused parts or gaps DEL508-508): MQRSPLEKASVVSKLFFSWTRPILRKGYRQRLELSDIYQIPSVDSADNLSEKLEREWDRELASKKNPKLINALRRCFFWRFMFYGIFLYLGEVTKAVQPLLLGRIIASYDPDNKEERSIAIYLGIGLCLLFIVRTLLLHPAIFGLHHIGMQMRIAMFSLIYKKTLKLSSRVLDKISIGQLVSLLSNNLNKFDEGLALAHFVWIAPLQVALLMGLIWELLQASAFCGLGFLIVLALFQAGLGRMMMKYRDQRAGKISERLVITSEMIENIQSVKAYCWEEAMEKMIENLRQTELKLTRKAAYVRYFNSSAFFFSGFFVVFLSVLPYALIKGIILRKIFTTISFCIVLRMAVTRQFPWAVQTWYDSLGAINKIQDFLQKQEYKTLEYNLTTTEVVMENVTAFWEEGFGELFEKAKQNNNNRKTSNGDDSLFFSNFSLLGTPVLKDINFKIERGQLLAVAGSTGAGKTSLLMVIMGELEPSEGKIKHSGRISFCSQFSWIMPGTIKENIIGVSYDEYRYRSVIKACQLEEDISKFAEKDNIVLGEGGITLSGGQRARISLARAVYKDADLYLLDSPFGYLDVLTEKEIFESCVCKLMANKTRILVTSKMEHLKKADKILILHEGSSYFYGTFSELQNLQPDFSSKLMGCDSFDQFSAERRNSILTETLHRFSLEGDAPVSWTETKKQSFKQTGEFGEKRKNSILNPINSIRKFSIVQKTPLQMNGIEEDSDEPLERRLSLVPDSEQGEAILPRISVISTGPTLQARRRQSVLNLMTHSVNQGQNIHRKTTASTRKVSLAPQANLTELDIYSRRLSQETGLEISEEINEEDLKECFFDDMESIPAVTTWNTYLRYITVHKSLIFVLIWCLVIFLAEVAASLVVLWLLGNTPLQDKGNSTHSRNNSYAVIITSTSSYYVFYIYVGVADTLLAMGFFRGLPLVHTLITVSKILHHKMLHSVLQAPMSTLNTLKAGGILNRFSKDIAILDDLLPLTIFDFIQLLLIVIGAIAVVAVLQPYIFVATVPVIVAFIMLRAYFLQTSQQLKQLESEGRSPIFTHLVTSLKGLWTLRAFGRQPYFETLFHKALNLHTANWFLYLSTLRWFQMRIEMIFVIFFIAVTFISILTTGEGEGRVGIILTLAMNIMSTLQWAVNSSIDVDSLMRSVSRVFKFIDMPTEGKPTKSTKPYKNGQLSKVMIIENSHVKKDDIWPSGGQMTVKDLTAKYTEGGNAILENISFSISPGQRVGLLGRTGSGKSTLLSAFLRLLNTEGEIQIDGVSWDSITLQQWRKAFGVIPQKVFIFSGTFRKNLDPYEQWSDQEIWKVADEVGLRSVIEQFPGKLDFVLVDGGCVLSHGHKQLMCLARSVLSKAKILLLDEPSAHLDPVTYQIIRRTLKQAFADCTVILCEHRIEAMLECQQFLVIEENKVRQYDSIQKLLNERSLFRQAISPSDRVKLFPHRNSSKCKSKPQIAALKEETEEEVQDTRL
# Description: Cells. Cell Lines and Cell Culture—Human bronchial epithelial (HBE) cells, homozygous for the […] mutation and its isogenic wild-type were obtained from lung transplants (CF patients) or lung resections (non-CF patients) (kindly provided by L J Galietta within the Italian Cystic Fibrosis Foundation). Cells were maintained at 37° C. in a humidified incubator in an atmosphere containing 5% CO2, and the experiments were done 5 days after plating (21, 22). Stable lentiviral-based transduction of the parental CFBE41o− cells (ΔF508/ΔF508), originally immortalized and characterized by Dr. D. Gruenert and co-workers (32) with either WT-CFTR or ΔF508-CFTR, was performed by Tranzyme, Inc. (Birmingham, AL). The transduced CFBE41o− cells were maintained in minimum Eagle's medium supplemented with 50 units/ml penicillin, 50 μg/ml streptomycin, 2 mM L-glutamine, 10% fetal bovine serum, and 1 μg/ml blasticidine (WT-CFTR) or 2 μg/ml puromycin (ΔF508-CFTR) in a 5% CO2, 95% air incubator at 37° C. The parental CFBE41o− cells were maintained under the same culture conditions but without blasticidine or puromycin. To establish polarized monolayers, CFBE41o− cells were seeded on 24-mm-diameter Transwell permeable supports ([…] pore size; Corning Corp., Corning, NY) at 2×10^6 and grown in air-liquid interface culture at 37° C. for 6-9 days and then at 27° C. for 36 hours. Cells were incubated with Tα1 100 ng/ml (CRIBI Biotechnology, Padova, see below), 3 μM VX-809 (Lumacaftor, Aurogene Rome, Italy), 1 μM VX-770 (Ivacaftor, Aurogene) alone or in combination for 24 hours before the assessment of CFTR protein expression and function. DMSO vehicle alone (0.1%, v/v) for 24 h was used as a control.
# CFTR Immunoblot Analysis. Immunoblot techniques using the anti-CFTR antibody (clone CF3, Abcam) were used to measure CFTR maturation in FRT, HEK-293, or HBE cells expressing CFTR or F508del-CFTR (34). After incubation, cells were harvested in ice-cold D-PBS solution (without calcium and magnesium) and pelleted at 1,000×g at 4° C. Cell pellets were lysed in 1% Nonidet P-40, 0.5% sodium deoxycholate, 200 mM NaCl, 10 mM Tris, pH 7.8, and 1 mM EDTA plus protease inhibitor mixture (1:250; Roche) for 30 min on ice. Lysates were spun for 10 min at 10,000×g at 4° C. to pellet nuclei and insoluble material. […] LiteAblotPlus chemiluminescence substrate (Euroclone S.p.A.), using ChemiDoc™ XRS+ Imagig system (Bio-Rad Laboratories) and blot quantification was obtained by densitometry image analysis using Image Lab 3.1.1 software (Bio-Rad).
# The SV40 transformed CF airway epithelial cell line (CFBE41o−), homozygous for the ΔF508-CFTR mutation, was used (32). […] CFTR bands were quantified by densitometry and expressed as the C/B ratio. […]
substance,measurement,setting,value
"Ac-Ser-Asp-Ala-Ala-Val-Asp-Thr-Ser-Ser-Glu-Ile-Thr-Thr-Lys-Asp-Leu-Lys-Glu-Lys-Lys-Glu-Val-Val-Glu-Glu-Ala-Glu-Asn-O (Ac-SDAAVDTSSEITTKDLKEKKEVVEEAEN-OH; not fully specified; printed as Ac-Ser-Asp-Ala-Ala-Val-Asp-Thr-Ser-Ser-Glu-Ile-Thr-Thr-Lys-Asp-Leu-Lys-Glu-Lys-Lys-Glu-Val-Val-Glu-Glu-Ala-Glu-Asn-O; listed as Homo sapiens) [Tα1, naturally occurring polypeptide of 28 amino acid; supplied as purified sterile, lyophilized, acetylated polypeptide]",local inflammatory cell recruitment and lung pathology (lung and BAL),[1]; C57/BL6 mice,significantly decreased
same,local inflammatory cell recruitment and lung pathology (lung and BAL),[1]; Cftr−/− mice,significantly decreased
same,"cellular expression of ΔF508 mature CFTR (band C, C/B ratio)","ΔF508 CFTR; 100 ng/ml Tα1, from 30 mins until 24 hours, CFBE41o− cells expressing ΔF508 CFTR",persistently increased
same,expression of the mature form (C) relative to the immature form (B) of CFTR,"ΔF508 CFTR; ΔF508-transfected cells, 24 hours, Tα1 100 ng/ml, VX-770 1 μM, VX-809 3 μM alone or in combination",increased

# Source: patent publication US12083165B2, “Thymosin alpha 1 for use in treatment of cystic fibrosis” (SciClone Pharmaceuticals International (SG) PTE. LTD., priority 2015, dated 2024)
